Measured values reported in US20090137572A1, “2-substituted-4-heteroaryl-pyrimidines useful for the treatment of proliferative disorders” (priority 2004, published 2009).

What was measured:
[1] = target: T1, Flt3 (FMS-like tyrosine kinase-3) (Homo sapiens, UniProt P36888); assay: Kinase assay (radioactive phosphate incorporation), Flt3; format: biochemical; conditions: pIC50 is -log(IC50, M), read-out: Kinase Inhibition pIC50 Flt3 (converted)
T1 sequence (P36888 27-993): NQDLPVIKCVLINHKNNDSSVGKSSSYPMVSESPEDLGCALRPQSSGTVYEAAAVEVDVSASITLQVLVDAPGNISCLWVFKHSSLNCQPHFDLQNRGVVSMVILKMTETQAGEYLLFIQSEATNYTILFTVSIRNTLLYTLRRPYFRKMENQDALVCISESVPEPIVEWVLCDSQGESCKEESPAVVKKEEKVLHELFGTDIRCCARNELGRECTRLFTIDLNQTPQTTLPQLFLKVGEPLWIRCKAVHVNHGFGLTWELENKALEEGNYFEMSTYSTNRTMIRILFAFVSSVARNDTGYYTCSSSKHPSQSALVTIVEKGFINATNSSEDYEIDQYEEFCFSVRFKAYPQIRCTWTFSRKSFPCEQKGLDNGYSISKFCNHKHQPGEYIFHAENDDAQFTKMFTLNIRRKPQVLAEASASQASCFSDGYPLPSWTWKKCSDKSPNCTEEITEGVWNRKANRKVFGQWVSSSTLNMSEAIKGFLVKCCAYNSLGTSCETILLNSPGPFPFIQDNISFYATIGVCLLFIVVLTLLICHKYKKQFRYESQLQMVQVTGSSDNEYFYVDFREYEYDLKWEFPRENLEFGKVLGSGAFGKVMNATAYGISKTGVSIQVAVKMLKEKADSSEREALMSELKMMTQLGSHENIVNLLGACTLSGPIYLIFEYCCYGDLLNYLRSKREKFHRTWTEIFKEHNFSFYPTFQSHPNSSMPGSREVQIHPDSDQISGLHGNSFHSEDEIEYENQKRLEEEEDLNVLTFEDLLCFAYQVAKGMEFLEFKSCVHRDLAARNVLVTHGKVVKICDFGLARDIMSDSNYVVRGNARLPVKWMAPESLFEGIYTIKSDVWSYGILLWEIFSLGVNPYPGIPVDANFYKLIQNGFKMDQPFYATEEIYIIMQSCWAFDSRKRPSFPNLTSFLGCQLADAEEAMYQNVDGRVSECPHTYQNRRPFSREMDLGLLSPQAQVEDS
Procedure: Kinase assays. The compounds of the invention above were investigated for their ability to inhibit the enzymatic activity of various protein kinases (Table 2). This was achieved by measurement of incorporation of radioactive phosphate from ATP into appropriate polypeptide substrates. Recombinant protein kinases and kinase complexes were produced or obtained commercially. Assays were performed using 96-well plates and appropriate assay buffers (typically 25 mM β-glycerophosphate, 20 mM MOPS, 5 mM EGTA, 1 mM DTT, 1 mM […], pH 7.4), into which were added 2-4 μg of active enzyme with appropriate substrates. The reactions were initiated by addition of Mg/ATP mix (15 mM MgCl2+100 μM ATP with 30-50 kBq per well of [γ-^32P]-ATP) and mixtures incubated as required at 30° C. Reactions were stopped on ice, followed by filtration through p81 filterplates or GF/C filterplates (Whatman Polyfiltronics, Kent, UK). After washing 3 times with 75 mM aq orthophosphoric acid, plates were dried, scintillant added and incorporated radioactivity measured in a scintillation counter (TopCount, Packard Instruments, Pangbourne, Berks, UK). Compounds for kinase assay were made up as 10 mM stocks in DMSO and diluted into 10% DMSO in assay buffer.

CDK2-cycline E = CDK2-cycline E (Homo sapiens, UniProt P24941); assay: Kinase assay (radioactive phosphate incorporation), CDK2-cyclin E; format: biochemical; conditions: read-out: Kinase Inhibition pIC50 CDK2-cycline E (converted)
Procedure, shortened: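 Radiometric filter-binding format: recombinant kinase + substrate, pH 7.4 MOPS buffer with EGTA, DTT, vanadate; 100 μM ATP/[γ-32P]-ATP, 15 mM MgCl2; 30° C; stopped on ice, P81 or GF/C filtration, scintillation read.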

Aurora A kinase = target: T2, Aurora A kinase (Homo sapiens, UniProt O14965); assay: Aurora-A (human) kinase assay (Kemptide substrate); format: biochemical; conditions: pIC50 is -log(IC50, M); 15 μM ATP; read-out: Kinase Inhibition pIC50 Aurora A kinase (converted)
T2 construct: purchased
T2 sequence (O14965 1-403): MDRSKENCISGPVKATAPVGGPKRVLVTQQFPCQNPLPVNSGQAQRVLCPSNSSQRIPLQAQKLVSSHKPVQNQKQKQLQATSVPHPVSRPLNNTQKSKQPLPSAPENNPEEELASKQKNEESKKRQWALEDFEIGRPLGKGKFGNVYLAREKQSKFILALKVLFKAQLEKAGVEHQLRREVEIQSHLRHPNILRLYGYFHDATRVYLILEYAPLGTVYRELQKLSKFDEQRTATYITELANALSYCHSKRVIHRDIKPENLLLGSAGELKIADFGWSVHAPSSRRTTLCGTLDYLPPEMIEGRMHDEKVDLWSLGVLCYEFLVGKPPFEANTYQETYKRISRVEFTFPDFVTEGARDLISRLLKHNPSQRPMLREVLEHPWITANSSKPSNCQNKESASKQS
Procedure, shortened: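 Radiometric filter-binding assay: commercial aurora-A kinase (5-10 ng) with 200 μM Kemptide in MOPS/EDTA pH 7.0, started with 10 mM Mg acetate and 15 μM ATP plus [γ-33P]-ATP. Incubated 40 min at room temperature, stopped with phosphoric acid, incorporated 33P counted by scintillation.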

CDK9/cyclin T1 = CDK9/cyclin T1 (Homo sapiens, UniProt P50750); assay: CDK 9 assay (CTD peptide substrate); format: biochemical; conditions: read-out: Kinase Inhibition pIC50 CDK9-cyclin T1 (converted)
Sequence of CDK9/cyclin T1 (P50750 whole entry): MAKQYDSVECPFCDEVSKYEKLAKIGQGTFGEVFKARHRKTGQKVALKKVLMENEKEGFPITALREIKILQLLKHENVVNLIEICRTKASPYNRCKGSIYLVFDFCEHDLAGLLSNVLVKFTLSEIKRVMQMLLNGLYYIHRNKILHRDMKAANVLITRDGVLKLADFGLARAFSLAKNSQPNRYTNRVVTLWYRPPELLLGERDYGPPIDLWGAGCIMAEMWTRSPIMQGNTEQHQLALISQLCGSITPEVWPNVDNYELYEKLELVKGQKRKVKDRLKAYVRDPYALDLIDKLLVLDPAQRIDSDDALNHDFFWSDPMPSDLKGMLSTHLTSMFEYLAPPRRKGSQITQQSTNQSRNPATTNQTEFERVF
Sequence of CDK9/cyclin T1 (O60563 whole entry partner): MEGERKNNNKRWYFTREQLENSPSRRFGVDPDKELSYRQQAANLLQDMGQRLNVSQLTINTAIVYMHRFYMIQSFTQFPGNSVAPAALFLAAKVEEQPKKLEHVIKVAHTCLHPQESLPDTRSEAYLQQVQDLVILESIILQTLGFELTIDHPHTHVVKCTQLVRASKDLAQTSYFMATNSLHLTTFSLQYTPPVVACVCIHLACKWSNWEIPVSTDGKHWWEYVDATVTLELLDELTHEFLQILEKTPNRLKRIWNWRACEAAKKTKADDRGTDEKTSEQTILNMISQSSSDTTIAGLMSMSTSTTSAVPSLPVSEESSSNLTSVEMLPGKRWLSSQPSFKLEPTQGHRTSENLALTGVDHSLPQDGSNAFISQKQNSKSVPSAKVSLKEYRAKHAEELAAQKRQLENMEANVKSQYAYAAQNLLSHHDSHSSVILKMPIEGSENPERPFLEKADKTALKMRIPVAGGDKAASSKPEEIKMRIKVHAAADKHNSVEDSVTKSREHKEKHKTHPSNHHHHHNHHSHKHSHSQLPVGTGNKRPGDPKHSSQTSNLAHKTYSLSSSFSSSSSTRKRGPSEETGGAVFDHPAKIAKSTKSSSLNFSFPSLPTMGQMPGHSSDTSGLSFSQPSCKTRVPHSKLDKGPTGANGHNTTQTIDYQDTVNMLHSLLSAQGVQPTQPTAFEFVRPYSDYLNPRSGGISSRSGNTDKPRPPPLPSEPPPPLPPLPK
Procedure, shortened: (§1)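 Test compounds were incubated with recombinant human kinase/cyclin complex and CTD peptide substrate for 45 min at 30° C (pH 7.2, 100 μM ATP spiked with 32PγATP, 15 mM MgCl2). Reactions were stopped on ice, avidin was added, and phosphorylated peptide was captured on P81 filters and counted by scintillation.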

CDK7/cyclin H = CDK7/cyclin H (Homo sapiens, UniProt P50613); assay: CDK 7 assay (CTD peptide substrate); format: biochemical; conditions: read-out: Kinase Inhibition pIC50 CDK7-cyclin H (converted)
Sequence of CDK7/cyclin H (P50613 whole entry): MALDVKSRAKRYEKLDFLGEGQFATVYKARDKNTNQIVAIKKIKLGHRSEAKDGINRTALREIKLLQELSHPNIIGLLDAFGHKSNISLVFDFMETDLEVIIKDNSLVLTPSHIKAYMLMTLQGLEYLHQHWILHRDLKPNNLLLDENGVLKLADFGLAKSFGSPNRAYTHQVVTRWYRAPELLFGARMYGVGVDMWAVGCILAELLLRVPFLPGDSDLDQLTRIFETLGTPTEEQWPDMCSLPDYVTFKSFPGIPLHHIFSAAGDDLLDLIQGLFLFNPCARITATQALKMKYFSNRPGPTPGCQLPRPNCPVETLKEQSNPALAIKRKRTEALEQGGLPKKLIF
Sequence of CDK7/cyclin H (P51946 whole entry partner): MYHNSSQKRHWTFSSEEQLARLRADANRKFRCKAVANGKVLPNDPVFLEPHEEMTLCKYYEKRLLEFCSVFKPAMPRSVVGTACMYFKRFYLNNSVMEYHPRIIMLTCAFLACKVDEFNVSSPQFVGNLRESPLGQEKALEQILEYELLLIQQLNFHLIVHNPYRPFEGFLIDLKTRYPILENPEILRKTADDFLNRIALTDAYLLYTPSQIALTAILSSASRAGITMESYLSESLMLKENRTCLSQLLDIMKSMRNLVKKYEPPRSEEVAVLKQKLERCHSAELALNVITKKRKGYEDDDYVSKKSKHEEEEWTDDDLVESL
Procedure, shortened: as §1

Structure (SMILES) | IC50 [1] | melting point | IC50 (CDK2-cycline E) | IC50 (Aurora A kinase) | IC50 (CDK9/cyclin T1) | IC50 (CDK7/cyclin H)
COc1cc(Nc2nccc(-c3sc(N)nc3C)n2)cc(OC)c1 [Compound 161, [4-(2-Amino-4-methyl-thiazol-5-yl)-pyrimidin-2-yl]-(3,5-dimethoxy-phenyl)-amine] | 5.01 nM | 269 to 271 °C | 158 nM | 100 nM | – | –
Cc1cc(Nc2nccc(-c3sc(N)nc3C)n2)ccc1N1CCOCC1 [Compound 218, [4-(2-Amino-4-methyl-thiazol-5-yl)-pyrimidin-2-yl]-(3-methyl-4-morpholin-4-yl-phenyl)-amine] | – | 256 to 257 °C | 1260 nM | 63.1 nM | 1580 nM | –
CC(=O)NCc1ccc(Nc2nccc(-c3sc(-c4cccnc4)nc3C)n2)cc1 [Compound 103, N-{4-[4-(4-Methyl-2-pyridin-3-yl-thiazol-5-yl)-pyrimidin-2-ylamino]-benzyl}-acetamide] | – | 199 to 201 °C | 2510 nM | – | 5010 nM | 2510 nM
COc1cc(Nc2nccc(-c3sc(NCCc4ccccc4)nc3C)n2)cc(OC)c1OC [Compound 165, [4-(4-Methyl-2-phenethylamino-thiazol-5-yl)-pyrimidin-2-yl]-(3,4,5-trimethoxy-phenyl)-amine] | 20 nM | 184 to 186 °C | 2510 nM | 63.1 nM | – | –
Cc1nc(-c2cccnc2)sc1-c1ccnc(Nc2ccc(N3CCOCC3)cc2)n1 [Compound 100, [4-(4-Methyl-2-pyridin-3-yl-thiazol-5-yl)-pyrimidin-2-yl]-(4-morpholin-4-yl-phenyl)-amine] | 316 nM | 240 to 242 °C | – | 251 nM | – | –
CC(=O)N1CCN(c2ccc(Nc3nccc(-c4sc(NCCc5ccccc5)nc4C)n3)cc2)CC1 [Compound 163, 1-(4-{4-[4-(4-Methyl-2-phenethylamino-thiazol-5-yl)-pyrimidin-2-ylamino]-phenyl}-piperazin-1-yl)-ethanone] | 126 nM | 212 to 213 °C | 1260 nM | 63.1 nM | 631 nM | 2510 nM
Cc1nc(N)sc1-c1ccnc(Nc2ccc3c(c2)OCO3)n1 [Compound 179, [4-(2-Amino-4-methyl-thiazol-5-yl)-pyrimidin-2-yl]-benzo[1,3]dioxol-5-yl-amine] | – | 211 to 213 °C | 100 nM | 79.4 nM | – | –
Cc1nc(C)c(-c2ccnc(Nc3ccc(N4CCOCC4)c(C)c3)n2)s1 [Compound 220, [4-(2,4-Dimethyl-thiazol-5-yl)-pyrimidin-2-yl]-(3-methyl-4-morpholin-4-yl-phenyl)-amine] | – | 164 to 166 °C | 1260 nM | 39.8 nM | 6310 nM | –
CCNc1nc(C)c(-c2ccnc(Nc3ccc4c(c3)OCO4)n2)s1 [Compound 178, Benzo[1,3]dioxol-5-yl-[4-(2-ethylamino-4-methyl-thiazol-5-yl)-pyrimidin-2-yl]-amine] | – | 194 to 195 °C | 200 nM | 158 nM | – | –
CC(=O)NCc1cccc(Nc2nccc(-c3sc(-c4cccs4)nc3C)n2)c1 [Compound 130, N-{3-[4-(4-Methyl-2-thiophen-2-yl-thiazol-5-yl)-pyrimidin-2-ylamino]-benzyl}-acetamide] | – | 223 to 225 °C | 794 nM | 158 nM | – | –
CCNc1nc(C)c(-c2ccnc(Nc3ccc(N4CCSCC4)cc3)n2)s1 [Compound 203, [4-(2-Ethylamino-4-methyl-thiazol-5-yl)-pyrimidin-2-yl]-(4-thiomorpholin-4-yl-phenyl)-amine] | – | 207 to 209 °C | 2000 nM | 126 nM | 3160 nM | –
Cc1cc(Nc2nccc(-c3sc(N)nc3C)n2)ccc1N1CCCCC1 [Compound 206, [4-(2-Amino-4-methyl-thiazol-5-yl)-pyrimidin-2-yl]-(3-methyl-4-piperidin-1-yl-phenyl)-amine] | – | 221 to 223 °C | 1260 nM | 158 nM | – | –
CCNc1nc(C)c(-c2ccnc(Nc3ccc(N4CCOCC4)c(OC)c3)n2)s1 [Compound 157, [4-(2-Ethylamino-4-methyl-thiazol-5-yl)-pyrimidin-2-yl]-(3-methoxy-4-morpholin-4-yl-phenyl)-amine] | – | 224 to 226 °C | 251 nM | 25.1 nM | – | –
CCNc1nc(C)c(-c2ccnc(Nc3ccc(N4CCOCC4)c(C)c3)n2)s1 [Compound 219, [4-(2-Ethylamino-4-methyl-thiazol-5-yl)-pyrimidin-2-yl]-(3-methyl-4-morpholin-4-yl-phenyl)-amine] | – | 213 to 214 °C | 1000 nM | 63.1 nM | 3160 nM | –
Cc1nc(N)sc1-c1ccnc(Nc2ccc(N3CCSCC3)cc2)n1 [Compound 201, [4-(2-Amino-4-methyl-thiazol-5-yl)-pyrimidin-2-yl]-(4-thiomorpholin-4-yl-phenyl)-amine] | – | 180 to 182 °C | 1580 nM | 63.1 nM | 1580 nM | –
CC(=O)N1CCN(c2ccc(Nc3nccc(-c4sc(-c5cccs5)nc4C)n3)cc2)CC1 [Compound 131, 1-(4-{4-[4-(4-Methyl-2-thiophen-2-yl-thiazol-5-yl)-pyrimidin-2-ylamino]-phenyl}-piperazin-1-yl)-ethanone] | – | 134 to 136 °C | 2510 nM | 251 nM | 2510 nM | 1580 nM
CC(=O)N1CCN(c2ccc(Nc3nccc(-c4sc(N(C)c5cccnc5)nc4C)n3)cc2)CC1 [Compound 164, 1-[4-(4-{4-[4-Methyl-2-(methyl-pyridin-3-yl-amino)-thiazol-5-yl]pyrimidin-2-ylamino}-phenyl)-piperazin-1-yl]-ethanone] | 25.1 nM | 205 to 206 °C | 398 nM | 31.6 nM | 2000 nM | 3980 nM
